Laboratory results as given in US8883841B2, “Oncogenic ras-specific cytotoxic compound and methods of use thereof” (The Board of Regents of the University of Texas System, priority 2005, dated 2014).
Like-named read-outs stand apart in the source and are kept apart here.

What was measured:
A498 = experiment: NCI in-vitro testing, A498 (Renal Cancer)
U251 = experiment: NCI in-vitro testing, U251 (CNS Cancer)
RPMI-8226 = experiment: NCI in-vitro testing, RPMI-8226 (Leukemia)
RXF 393 = experiment: NCI in-vitro testing, RXF 393 (Renal Cancer)
CCRF-CEM = experiment: NCI in-vitro testing, CCRF-CEM (Leukemia)
H460 cells = experiment: cells; conditions: Homo sapiens
T-47D = experiment: NCI in-vitro testing, T-47D (Breast Cancer)
HT29 = experiment: NCI in-vitro testing, HT29 (Colon Cancer)
Sw620 = experiment: Cell viability, Sw620 colon cancer cells; assay type: cell-based, human; conditions: Homo sapiens, SW-620; Sw620, Colon; read-out: IC50 (−LogM) (converted)

OCc1cn(Cc2ccc(Cl)cc2)c2ccccc12 [Oncrasin K060, 1H-Indole-3-methanol, 1-[(4-chlorophenyl)methyl]-]
Percent Growth (A498; A498, Log10 Concentration −4.0 Molar): −94% | Percent Growth (A498; A498, Log10 Concentration −5.0 Molar): −95% | Percent Growth (A498; A498, Log10 Concentration −6.0 Molar): −87% | Percent Growth (A498; A498, Log10 Concentration −7.0 Molar): −56% | Percent Growth (A498; A498, Log10 Concentration −8.0 Molar): 61% | GI50 (A498; Homo sapiens, A498): 12.4 nM | CC50 (A498; Homo sapiens, A498, read-out: LC50): 89 nM | GI50 (A498; Homo sapiens, A498, read-out: Log10 GI50 (converted)): 12.3 nM | GI50 (U251; Homo sapiens, U-251): 2460 nM | CC50 (U251; Homo sapiens, U-251, read-out: LC50): > 100000 nM | GI50 (U251; Homo sapiens, U-251, read-out: Log10 GI50 (converted)): 2450 nM | TGI (U251; U251): 2.63E−5 Molar | Percent Growth (U251; U251, Log10 Concentration −4.0 Molar): −35% | Percent Growth (U251; U251, Log10 Concentration −5.0 Molar): 25% | Percent Growth (U251; U251, Log10 Concentration −6.0 Molar): 55% | Percent Growth (U251; U251, Log10 Concentration −7.0 Molar): 84% | Percent Growth (U251; U251, Log10 Concentration −8.0 Molar): 93% | GI50 (RPMI-8226; Homo sapiens, RPMI-8226): 372 nM | CC50 (RPMI-8226; Homo sapiens, RPMI-8226, read-out: LC50): > 100000 nM | GI50 (RPMI-8226; Homo sapiens, RPMI-8226, read-out: Log10 GI50 (converted)): 372 nM | TGI (RPMI-8226; RPMI-8226): 3.19E−6 Molar | Percent Growth (RPMI-8226; RPMI-8226, Log10 Concentration −4.0 Molar): −35% | Percent Growth (RPMI-8226; RPMI-8226, Log10 Concentration −5.0 Molar): −23% | Percent Growth (RPMI-8226; RPMI-8226, Log10 Concentration −6.0 Molar): 24% | Percent Growth (RPMI-8226; RPMI-8226, Log10 Concentration −7.0 Molar): 85% | Percent Growth (RPMI-8226; RPMI-8226, Log10 Concentration −8.0 Molar): 119% | GI50 (RXF 393; Homo sapiens, RXF 393): < 10 nM | CC50 (RXF 393; Homo sapiens, RXF 393, read-out: LC50): 23200 nM | GI50 (RXF 393; Homo sapiens, RXF 393, read-out: Log10 GI50 (converted)): < 10 nM | TGI (RXF 393; RXF 393): 2.44E−7 Molar | Percent Growth (RXF 393; RXF 393, Log10 Concentration −4.0 Molar): −85% | Percent Growth (RXF 393; RXF 393, Log10 Concentration −5.0 Molar): −30% | Percent Growth (RXF 393; RXF 393, Log10 Concentration −6.0 Molar): −12% | Percent Growth (RXF 393; RXF 393, Log10 Concentration −7.0 Molar): 7% | Percent Growth (RXF 393; RXF 393, Log10 Concentration −8.0 Molar): 31% | TGI (CCRF-CEM): 4.31E−6 Molar | GI50 (CCRF-CEM; Homo sapiens): 1740 nM | CC50 (CCRF-CEM; Homo sapiens, read-out: LC50): 14800 nM | GI50 (CCRF-CEM; Homo sapiens, read-out: Log10 GI50 (converted)): 1740 nM | Percent Growth (CCRF-CEM; Log10 Concentration −4.0 Molar): −67% | Percent Growth (CCRF-CEM; Log10 Concentration −5.0 Molar): −47% | Percent Growth (CCRF-CEM; Log10 Concentration −6.0 Molar): 81% | Percent Growth (CCRF-CEM; Log10 Concentration −7.0 Molar): 97% | Percent Growth (CCRF-CEM; Log10 Concentration −8.0 Molar): 100% | IC50 (H460 cells; NCI-H460, read-out: IC50 (−LogM), H460, Lung (converted)): 15.8 nM | IC50 (H460 cells; NCI-H460, read-out: IC50 in H460 cells, Table 1): 15.8 nM | GI50 (T-47D; Homo sapiens, T47D): 26.7 nM | CC50 (T-47D; Homo sapiens, T47D, read-out: LC50): > 100000 nM | GI50 (T-47D; Homo sapiens, T47D, read-out: Log10 GI50 (converted)): 26.9 nM | TGI (T-47D; T-47D): 4.23E−7 Molar | Percent Growth (T-47D; T-47D, Log10 Concentration −4.0 Molar): −14% | Percent Growth (T-47D; T-47D, Log10 Concentration −5.0 Molar): −16% | Percent Growth (T-47D; T-47D, Log10 Concentration −6.0 Molar): −12% | Percent Growth (T-47D; T-47D, Log10 Concentration −7.0 Molar): 20% | Percent Growth (T-47D; T-47D, Log10 Concentration −8.0 Molar): 73% | TGI (HT29; HT20): 2.01E−6 Molar | Percent Growth (HT29; HT20, Log10 Concentration −4.0 (Molar)): −66% | Percent Growth (HT29; HT20, Log10 Concentration −5.0 (Molar)): 29% | Percent Growth (HT29; HT20, Log10 Concentration −6.0 (Molar)): 68% | Percent Growth (HT29; HT20, Log10 Concentration −7.0 (Molar)): 79% | Percent Growth (HT29; HT20, Log10 Concentration −8.0 (Molar)): 103% | GI50 (HT29; Homo sapiens): 1830 nM | GI50 (HT29; Homo sapiens, HT-29, read-out: Log10 GI50 (converted)): 1820 nM | CC50 (HT29; Homo sapiens, read-out: LC50): 67600 nM | IC50 (Sw620): 5010 nM
